Where a name gives a salt, the structure may show the parent alone. Read-outs that look alike come from different tables or passages of the source.

By Ki is commonly meant a measure of affinity in units of concentration, obtained from inhibition or displacement.

The subject of assay [1] is extracellular levels of acetylcholine in medial prefrontal cortex. As to the kind of experiment: Acetylcholine modulation in medial prefrontal cortex (microdialysis). It is filed as in vivo, male Wistar rats. Conditions: for mean AUC of percent change in acetylcholine levels, combination compared to donepezil alone: test compound in combination with donepezil (1 mg/kg, s.c.). The text has this:
Male Wistar rats (240-300 g body weight) were stereotaxically implanted with a microdialysis guide cannula in medial prefrontal cortex (mPFC; AP: +3.2 mm, ML: −0.5 mm, DV: −3.0 mm) under isoflurane anesthesia. Co-ordinates were taken according to atlas for the rat brain (Paxinos and Watson 2004) with reference points taken from bregma and vertical from the skull. The rats were allowed to recover individually for four days in a round bottom Plexiglas bowl with free access to feed and water.
After surgical recovery of 4 days, male Wistar rats were connected to dual quartz lined two-channel liquid swivel (Instech, UK) on a counter balance lever arm, which allowed unrestricted movements of the animal. Sixteen hours before start of the study, a pre-equilibrated microdialysis probe (2 mm dialysis membrane) was inserted into mPFC through the guide cannula. On the day of study, probe was perfused with artificial cerebrospinal fluid (aCSF; NaCl 147 mM, KCl2.7 mM, MgCl2 1 mM, CaCl2. 2H2O 1.2 mM, pH 7.4) at a flow rate of 1.5 μL/min and a stabilization period of 2 h was maintained. Five basal samples were collected at 20 min intervals prior to the treatment of test Compounds (3 or 10 mg/kg, p.o.) or vehicle. […] Dialysate samples were collected for an additional period of 4 h post treatment of test compounds. Dialysates were stored below −50° C. prior to analysis.
Acetylcholine concentrations in dialysates were quantified using LC-MS/MS based method.
All microdialysis data for acetylcholine was plotted as percent change from mean dialysate basal concentrations with 100% defined as the average of five pre-dose values. […] Statistical significance was considered at a p value less than 0.05. Incorrect probe placement was considered as criteria to reject the data from animal.

For assay [2], the system named is stimulation evoked theta levels in dorsal hippocampus. Description: Theta modulation in dorsal hippocampus of anesthetized rats. It is filed as in vivo, male Wistar rats. The text has this: Male Wistar rats (240-320 g) were anesthetized by intraperitoneal administration of urethane (1.2 to 1.5 g/kg) for implantation of a catheter in the left femoral vein. The animal was placed in a stereotaxic frame for implanting an electrode (stainless steel wire, Plastics One) into the dorsal hippocampus (AP, −3.8 mm; ML, +2.2 mm; DV, −2.5 mm; Paxinos and Watson, 2004). Bipolar stimulating electrode (untwisted stainless steel wires, separated by 0.75-1.0 mm at their tips, Plastics One) was implanted in the Nucleus Pontis Oralis (NPO; AP, −7.8 mm; ML, 1.8 mm; DV, −6.0 mm; Paxinos and Watson, 2004). Additionally one electrode was implanted into the cerebellum which served as a reference. Hippocampal θ rhythm was evoked via a 6-s electrical stimulation train (20-160 μA, 0.3-ms pulse duration, 250 Hz) delivered to the NPO at a rate of 0.01 trains/s with a Grass S88 stimulator and PSIU6 stimulus isolation unit (Grass Medical Instruments, Quincy, Mass.). EEG was recorded at a rate of 1000 Hz using Ponemah (Version 5.2) software and stored for off-line analysis using NeuroScore (Version 3.0). Baseline amplitude level was achieved by using the current required to elicit θ rhythm to 50% of the maximal amplitude under control conditions.
Power in the θ rhythm frequency in the stimulation period during the 30-min baseline period was calculated and the % changes in these measures post treatment were calculated. […] Statistical significance was considered at a p value less than 0.05.

Assay [3] concerns the target T1, Human histamine-3 receptor (Homo sapiens, UniProt Q9Y5N1).
T1 construct: expressed in transfected cells; host or cells: CHO cells
Description: Determination of Ki value at human histamine-3 receptor (radioligand binding, [3H] R-α-methylhistamine). Here is the method:
Test compounds were evaluated according to the following procedures to determine the Ki value at human and rat histamine-3 receptor.
• Receptor source: Rat brain frontal cortex or recombinant human cDNA expressed in CHO cells • Radioligand: [3H] R-α-methylhistamine • Final ligand concentration: [3.0 nM] • Non-specific determinant: R-α-methylhistamine (100 μM) • Reference compound: R-α-methylhistamine • Positive control: R-α-methylhistamine Incubation Conditions:
Increasing concentrations of test compounds or standard were incubated with membrane receptors and radioligand in 5 mM MgC12 and 50 mM TRIS-HCl (pH 7.4) for 60 minutes at room temperature. The reaction was terminated by rapid vacuum filtration onto the glass fiber filters. Radioactivity trapped onto the filters was determined and compared to the control values in order to ascertain any interactions of the test compound(s) with either cloned human or rat receptor binding site.

The mark [4] stands for this setting: test compound (3 or 10 mg/kg, p.o.) in combination with donepezil (1 mg/kg, s.c.).
Setting [5] is: Compound 1 (1 mg/kg, i.v.) in combination with donepezil (0.3 mg/kg, i.v.).

T1 sequence (Q9Y5N1 whole entry): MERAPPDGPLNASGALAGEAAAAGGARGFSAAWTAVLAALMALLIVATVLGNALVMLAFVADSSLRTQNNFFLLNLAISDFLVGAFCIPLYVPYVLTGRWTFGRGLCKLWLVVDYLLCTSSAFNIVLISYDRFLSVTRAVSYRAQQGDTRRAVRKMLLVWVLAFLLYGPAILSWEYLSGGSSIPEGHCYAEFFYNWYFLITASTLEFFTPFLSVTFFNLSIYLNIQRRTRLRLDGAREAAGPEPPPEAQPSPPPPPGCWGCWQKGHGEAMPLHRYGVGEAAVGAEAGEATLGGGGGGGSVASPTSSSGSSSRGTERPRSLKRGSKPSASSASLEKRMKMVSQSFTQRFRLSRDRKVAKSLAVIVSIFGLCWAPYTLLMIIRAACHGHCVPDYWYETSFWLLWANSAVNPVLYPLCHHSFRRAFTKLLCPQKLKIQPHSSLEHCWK

In the case of `O=C(CN1CCOCC1)Nc1ccc(OC2CCN(C3CCC3)CC2)cc1` [Compound 1, N-[4-(1-Cyclobutylpiperidin-4-yloxy)phenyl]-2-(morpholin-4-yl)acetamide dihydrochloride], the “peak acetylcholine levels, % of pre-dose levels” value (“peak acetylcholine levels, %” for short) in assay [1] (setting [4]) is 1676±150 % of pre-dose levels. In addition, the “peak acetylcholine levels, %” value in assay [1] (test compound (3 or 10 mg/kg, p.o.) in combination with rivastigmine (0.5 mg/kg, s.c.)) is recorded as 1276±213 % of pre-dose levels. Besides, the “mean AUC of percent change in acetylcholine levels, combination compared to donepezil alone” value (shortened to “mean AUC of percent change … to donepezil alone”) in assay [1] is recorded as “significantly higher”. In addition, the “mean AUC of percent change in acetylcholine levels, combination compared to rivastigmine alone” value in assay [1] (test compound in combination with rivastigmine (0.5 mg/kg, s.c.)) is “higher”. Further, in assay [2] (setting [5]), the “mean AUC of theta power, combination compared to donepezil” value is reported as “significantly higher” and the “peak theta power levels, % of pre-dose levels” value is reported as 163±15 % of pre-dose levels.

With `COc1cc2c(cc1OC)C(=O)C(CC1CCN(Cc3ccccc3)CC1)C2` (centres unmarked) [donepezil, reference compound], the “effect on hippocampal theta power” value in assay [2] (donepezil alone, 0.3 mg/kg, i.v.) was “increase in hippocampal theta power”.

`O=C(CN1CCOCC1)Nc1ccc(OC2CCN(C3CC3)CC2)cc1` [Compound 2, N-[4-(1-Cyclopropylpiperidin-4-yloxy)phenyl]-2-(morpholin-4-yl)acetamide tartrate]: affinity in assay [3] was put at a Ki of 19.9 nM. Also, the “peak acetylcholine levels, %” value in assay [1] (setting [4]) is 3057±468 % of pre-dose levels. In assay [1], the “mean AUC of percent change … to donepezil alone” value is reported as “significantly higher”.

Turning to `CCN(C)C(=O)Oc1cccc([C@H](C)N(C)C)c1` [rivastigmine, reference compound], the “maximum cortical acetylcholine levels, % of basal levels” value in assay [1] (rivastigmine alone, 0.5 mg/kg, s.c., mPFC dialysate) is recorded as 612±104 % of basal levels.

For the compound `CC(C)N1CCC(Oc2ccc(NC(=O)CN3CCOCC3)cc2)CC1` [Compound 3, N-[4-(1-Isopropylpiperidin-4-yloxy)phenyl]-2-(morpholin-4-yl)acetamide], the Ki in assay [3] (recombinant human cDNA expressed in CHO cells, [3H] R-α-methylhistamine 3.0 nM, read-out: Human histamie-3 receptor Ki) was 8.3 nM. The “peak acetylcholine levels, %” value in assay [1] (setting [4]) is 1874±184 % of pre-dose levels. Further, the “mean AUC of percent change … to donepezil alone” value in assay [1] is given as “significantly higher”.
